Laboratory results taken from ChEMBL document CHEMBL4364325, “Synthesis, pharmacological and structural studies of 5-substituted-3-(1-arylmethyl-1,2,3,6-tetrahydropyridin-4-yl)-1H-indoles as multi-target ligands of aminergic GPCRs” (Eur J Med Chem, 2019).
Active and inactive are the calls of the source. No cut-off for these calls is given here.

Key:
D(2) dopamine receptor [1] = target: T1, D(2) dopamine receptor (Homo sapiens, UniProt P14416); assay: Displacement of [3H]Spiperone from human D2S receptor expressed in CHOK1 cell membranes measured after 120 mins
T1 sequence (P14416 whole entry): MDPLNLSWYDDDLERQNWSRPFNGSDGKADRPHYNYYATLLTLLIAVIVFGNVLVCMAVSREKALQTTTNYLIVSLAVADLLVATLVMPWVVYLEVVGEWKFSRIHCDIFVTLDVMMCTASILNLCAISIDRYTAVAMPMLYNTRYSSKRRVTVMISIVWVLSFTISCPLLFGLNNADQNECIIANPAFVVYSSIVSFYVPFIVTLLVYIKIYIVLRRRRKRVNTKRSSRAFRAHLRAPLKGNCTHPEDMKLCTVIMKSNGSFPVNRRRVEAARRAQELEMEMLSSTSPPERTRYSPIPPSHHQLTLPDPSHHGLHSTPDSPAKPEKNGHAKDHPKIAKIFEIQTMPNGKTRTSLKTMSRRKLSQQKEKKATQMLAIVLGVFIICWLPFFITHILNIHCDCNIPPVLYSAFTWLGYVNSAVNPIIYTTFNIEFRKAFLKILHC

[2] = target: T2, 5-hydroxytryptamine receptor 1A (Homo sapiens, UniProt P08908); assay: Displacement of [3H]8-OH-DPAT from human 5HT1A receptor expressed in HEK293 cell membranes measured after 120 mins
T2 sequence (P08908 whole entry): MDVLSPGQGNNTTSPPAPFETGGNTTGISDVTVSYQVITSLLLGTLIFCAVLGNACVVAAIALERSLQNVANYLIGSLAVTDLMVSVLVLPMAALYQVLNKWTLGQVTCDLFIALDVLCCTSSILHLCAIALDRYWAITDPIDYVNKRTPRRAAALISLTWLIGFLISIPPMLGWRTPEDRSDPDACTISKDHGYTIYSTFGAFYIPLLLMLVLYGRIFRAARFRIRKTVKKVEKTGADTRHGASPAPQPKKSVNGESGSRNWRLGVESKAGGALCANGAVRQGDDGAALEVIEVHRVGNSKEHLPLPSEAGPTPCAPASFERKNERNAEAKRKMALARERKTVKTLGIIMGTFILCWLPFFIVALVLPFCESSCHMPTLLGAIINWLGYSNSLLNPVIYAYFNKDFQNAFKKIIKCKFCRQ

[3] = target: T3, 5-hydroxytryptamine receptor 2A (Homo sapiens, UniProt P28223); assay: Displacement of [3H]ketanserin from human 5HT2A receptor expressed in HEK293 cell membranes at 10 uM measured after 30 mins relative to control
T3 sequence (P28223 whole entry): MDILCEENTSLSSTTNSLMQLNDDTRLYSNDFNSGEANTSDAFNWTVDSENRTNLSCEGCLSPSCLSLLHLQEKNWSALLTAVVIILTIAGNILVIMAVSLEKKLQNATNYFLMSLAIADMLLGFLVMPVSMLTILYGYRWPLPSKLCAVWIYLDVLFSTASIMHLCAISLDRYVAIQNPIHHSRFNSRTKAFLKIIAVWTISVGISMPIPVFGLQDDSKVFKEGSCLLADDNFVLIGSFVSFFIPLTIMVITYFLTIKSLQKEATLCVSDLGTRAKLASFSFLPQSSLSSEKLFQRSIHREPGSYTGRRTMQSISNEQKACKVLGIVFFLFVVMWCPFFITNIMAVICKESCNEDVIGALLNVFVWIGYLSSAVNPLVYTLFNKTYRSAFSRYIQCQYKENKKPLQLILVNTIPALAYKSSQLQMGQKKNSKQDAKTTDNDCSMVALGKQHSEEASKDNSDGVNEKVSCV

Homo sapiens = organism: Homo sapiens; assay: Selectivity ratio of Kb for human 5HT2A receptor expressed in CHOK1 cells to Kb for human D2S receptor expressed in CHOK1 cells; format: cell-based
Mus musculus [4] = assay: Antidepressant activity in Swiss mouse assessed as increase in latency time at 50 mg/kg, ip as acute administration measured during last 4 mins for 6 mins by forced swim test; format: functional, organism-based
D(2) dopamine receptor [5] = target: T1, D(2) dopamine receptor; assay: Competitive antagonist activity at human D2S receptor expressed in CHOK1 cells assessed as quinpirole mediated inhibition of forskolin induced cAMP accumulation by measuring parallel rightward shifts of quinpirole concentration-response curves incubated for 10 mins by HTRF assay based Schild plot analysis; format: functional, cell-based
[6] = target: T3, 5-hydroxytryptamine receptor 2A; assay: Antagonist activity at human 5HT2A receptor expressed in CHOK1 cells assessed as inhibition of inositol phosphate production incubated for 24 hrs followed by 5-HT addition by Cheng-Prusoff equation analysis; format: functional, cell-based
[7] = target: T3, 5-hydroxytryptamine receptor 2A; assay: Displacement of [3H]ketanserin from human 5HT2A receptor expressed in HEK293 cell membranes measured after 30 mins; format: cell-based
Mus musculus [8] = assay: Antidepressant activity in Swiss mouse assessed as decrease in immobility time at 50 mg/kg, ip as acute administration measured during last 4 mins for 6 mins by forced swim test; format: functional, organism-based
D(2) dopamine receptor [9] = target: T1, D(2) dopamine receptor; assay: Agonist activity at human D2 receptor expressed in CHOK1 cells assessed as inhibition of forskolin induced cAMP production at 0.1 nM to 100 uM incubated for 10 mins followed by forskolin addition and measured after 5 mins by HTRF assay; format: functional, cell-based
[10] = Toxicity in Swiss mouse assessed as induction of motor coordination impairments at 50 mg/kg, ip measured after 60 mins by chimney test; format: organism-based; details: in vivo, 1 h
[11] = target: T3, 5-hydroxytryptamine receptor 2A; format: functional, cell-based
Description: Antagonist activity at human 5HT2A receptor expressed in CHOK1 cells assessed as inhibition of 5-HT induced inositol phosphate production incubated for 24 hrs followed by 5-HT addition by HTRF assay

Mus musculus [12] = assay: Antipsychotic activity in Swiss mouse assessed as decrease in amphetamine-induced hyperlocomotion at 50 mg/kg, ip pretreated for 60 mins followed by amphetamine administration and measured for 30 mins; format: functional, organism-based
Mus musculus [13] = assay: Cognition enhancing effect in Swiss mouse assessed as increase in latency index at 50 mg/kg, ip as acute administration measured after 24 hrs by passive avoidance test; format: functional, organism-based
D(2) dopamine receptor [14] = target: T1, D(2) dopamine receptor; assay: Antagonist activity at human D2S receptor expressed in CHOK1 cells assessed as suppression of dopamine-induced inhibition of forskolin-stimulated cAMP accumulation preincubated for 5 mins followed by dopamine and forskolin addition and measured after 10 mins by HTRF assay; format: functional, cell-based
[15] = target: T4, 5-hydroxytryptamine receptor 1A (Homo sapiens) (UniProt P08908); assay: Agonist activity at human 5HT1A receptor expressed in HEK293 cell membranes assessed as maximal inhibition of forskolin induced cAMP production incubated for 24 hrs followed by forskolin addition by HTRF assay relative to control; format: functional, cell-based
T4 sequence (whole entry): T2 sequence (P08908 whole entry)

D(2) dopamine receptor [16] = target: T1, D(2) dopamine receptor; assay: Displacement of [3H]Spiperone from human D2S receptor expressed in CHOK1 cell membranes at 10 uM measured after 120 mins relative to control
D(2) dopamine receptor [17] = target: T1, D(2) dopamine receptor; assay: Displacement of [3H]Spiperone from human D2S receptor expressed in CHO cell membranes
[18] = target: T2, 5-hydroxytryptamine receptor 1A; assay: Displacement of [3H]8-OH-DPAT from human 5HT1A receptor expressed in HEK293 cell membranes
D(1A) dopamine receptor = D(1A) dopamine receptor (Homo sapiens, UniProt P21728); assay: Displacement of [3H]SCH23390 from human D1 receptor expressed in commercial cell membranes
Sequence of D(1A) dopamine receptor (P21728 whole entry): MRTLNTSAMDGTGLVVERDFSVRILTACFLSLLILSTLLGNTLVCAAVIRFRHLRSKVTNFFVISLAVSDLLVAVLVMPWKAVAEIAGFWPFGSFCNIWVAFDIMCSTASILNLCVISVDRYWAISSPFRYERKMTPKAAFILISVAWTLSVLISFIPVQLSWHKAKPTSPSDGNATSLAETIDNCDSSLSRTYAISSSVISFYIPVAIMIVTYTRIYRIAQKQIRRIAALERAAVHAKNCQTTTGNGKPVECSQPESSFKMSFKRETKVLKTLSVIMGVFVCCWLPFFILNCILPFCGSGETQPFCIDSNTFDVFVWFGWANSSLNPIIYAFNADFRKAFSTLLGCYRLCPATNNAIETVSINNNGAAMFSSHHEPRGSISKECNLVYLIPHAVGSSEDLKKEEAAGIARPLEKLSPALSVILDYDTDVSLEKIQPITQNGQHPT

[19] = target: T3, 5-hydroxytryptamine receptor 2A; assay: Displacement of [3H]ketanserin from human 5HT2A receptor expressed in CHO cell membranes
D(3) dopamine receptor = D(3) dopamine receptor (Homo sapiens, UniProt P35462); assay: Displacement of [3H]Spiperone from human D3 receptor expressed in commercial cell membranes
Sequence of D(3) dopamine receptor (P35462 whole entry): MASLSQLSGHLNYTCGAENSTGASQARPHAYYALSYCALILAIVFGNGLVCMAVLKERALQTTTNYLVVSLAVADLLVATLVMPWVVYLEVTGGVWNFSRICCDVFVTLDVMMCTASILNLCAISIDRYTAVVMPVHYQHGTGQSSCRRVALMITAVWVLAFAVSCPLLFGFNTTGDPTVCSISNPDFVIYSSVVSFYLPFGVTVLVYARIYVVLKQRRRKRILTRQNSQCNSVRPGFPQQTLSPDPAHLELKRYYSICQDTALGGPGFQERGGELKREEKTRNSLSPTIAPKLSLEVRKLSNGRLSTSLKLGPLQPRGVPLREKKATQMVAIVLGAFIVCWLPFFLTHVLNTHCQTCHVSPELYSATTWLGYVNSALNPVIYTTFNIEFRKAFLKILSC

Row | Structure (SMILES) | Ki (D(2) dopamine receptor [1]) | Ki [2] | inhibition [3] | other results
1 | COc1cccc(CN2CC=C(c3c[nH]c4ccc(OC)cc34)CC2)c1 | 112 nM | 135 nM | 24% | –
2 | C1=C(c2c[nH]c3ccccc23)CCN(Cc2cccs2)C1 | 71.9 nM | 305 nM | – | Selectivity ratio (Homo sapiens): 50; Activity (Mus musculus [4]): Active; Activity (D(2) dopamine receptor [5]): Dose-dependent effect; Kb (D(2) dopamine receptor [5]): 5.06 nM; pKb (D(2) dopamine receptor [5]): 8.3; Kb [6]: 238 nM; Ki [7]: 171 nM; Activity (Mus musculus [8]): Active; Activity (D(2) dopamine receptor [9]): inactive; Activity [10]: Non-Toxic; IC50 [11]: 2410 nM; Activity (Mus musculus [12]): Active; Activity (Mus musculus [13]): Active; Activity (D(2) dopamine receptor [14]): Dose-dependent effect; Emax [15]: 67%
3 | COc1ccc2[nH]cc(C3=CCN(Cc4ccccc4)CC3)c2c1 | 62.7 nM | 139 nM | 41% | –
4 | CCOc1ccc2[nH]cc(C3=CCN(Cc4ccc(OC)cc4)CC3)c2c1 | 132 nM | 194 nM | 38% | –
5 | CCOc1ccc2[nH]cc(C3=CCN(Cc4ccccc4)CC3)c2c1 | – | 220 nM | – | Ki [7]: 2100 nM
6 | C1=C(c2c[nH]c3ccccc23)CCN(Cc2ccccc2)C1 | 25.8 nM | 354 nM | – | Selectivity ratio (Homo sapiens): 80; Activity (D(2) dopamine receptor [5]): Dose-dependent effect; Kb (D(2) dopamine receptor [5]): 3.51 nM; pKb (D(2) dopamine receptor [5]): 8.45; Kb [6]: 279 nM; Ki [7]: 125 nM; Activity (D(2) dopamine receptor [9]): inactive; IC50 [11]: 2620 nM; Activity (D(2) dopamine receptor [14]): Dose-dependent effect; Emax [15]: 89%
7 | COc1ccc2[nH]cc(C3=CCN(Cc4ccco4)CC3)c2c1 | 142 nM | 195 nM | 15% | –
8 | COc1ccc(CN2CC=C(c3c[nH]c4ccc(OC(C)C)cc34)CC2)cc1 | 165 nM | 378 nM | 36% | –
9 | CCOc1ccc2[nH]cc(C3=CCN(Cc4cccc(OC)c4)CC3)c2c1 | 108 nM | 160 nM | 3% | –
10 | COc1cccc(CN2CC=C(c3c[nH]c4ccccc34)CC2)c1 | 26.9 nM | 243 nM | – | Selectivity ratio (Homo sapiens): 200; Activity (D(2) dopamine receptor [5]): Dose-dependent effect; Kb (D(2) dopamine receptor [5]): 4.95 nM; pKb (D(2) dopamine receptor [5]): 8.31; Kb [6]: 803 nM; Ki [7]: 194 nM; Activity (D(2) dopamine receptor [9]): inactive; IC50 [11]: 7980 nM; Activity (D(2) dopamine receptor [14]): Dose-dependent effect; Emax [15]: 76%
11 | COc1ccc2[nH]cc(C3=CCN(Cc4cccs4)CC3)c2c1 | 141 nM | 157 nM | – | Ki [7]: 1890 nM
12 | COc1ccc(CN2CC=C(c3c[nH]c4ccccc34)CC2)cc1 | 87.3 nM | 243 nM | 52% | –
13 | NCCc1c[nH]c2ccc(C(N)=O)cc12 | – | – | – | Emax [15]: 95%
14 | COc1cccc(CN2CC=C(c3c[nH]c4ccc(OC(C)C)cc34)CC2)c1 | 299 nM | 290 nM | 43% | –
15 | CCOc1ccc2[nH]cc(C3=CCN(Cc4cccs4)CC3)c2c1 | 166 nM | 139 nM | 0% | –
16 | CC(C)Oc1ccc2[nH]cc(C3=CCN(Cc4ccco4)CC3)c2c1 | – | 431 nM | 5% | inhibition (D(2) dopamine receptor [16]): 51%
17 | COc1ccc2[nH]cc(C3=CCN(Cc4cc(=O)[nH]c5ccccc45)CC3)c2c1 | – | – | – | Ki (D(2) dopamine receptor [17]): 58 nM; Ki [18]: 125 nM; Ki (D(1A) dopamine receptor): 148 nM; Ki [19]: 358 nM; Ki (D(3) dopamine receptor): 614 nM
18 | C1=C(c2c[nH]c3ccccc23)CCN(Cc2ccco2)C1 | 257 nM | 752 nM | – | Ki [7]: 173 nM
19 | CCOc1ccc2[nH]cc(C3=CCN(Cc4ccco4)CC3)c2c1 | – | 486 nM | 47% | inhibition (D(2) dopamine receptor [16]): 62%
20 | CC(C)Oc1ccc2[nH]cc(C3=CCN(Cc4cccs4)CC3)c2c1 | 465 nM | 214 nM | 14% | –
21 | CC(C)Oc1ccc2[nH]cc(C3=CCN(Cc4ccccc4)CC3)c2c1 | 321 nM | 203 nM | 32% | –
22 | COc1ccc(CN2CC=C(c3c[nH]c4ccc(OC)cc34)CC2)cc1 | 148 nM | 134 nM | 48% | –
